This is an account of results in article PMC11261605, “Photocontrolled Reversible Amyloid Fibril Formation of Parathyroid Hormone-Derived Peptides” (Bioconjugate Chemistry, 2024).

Values after ≈ are worked out from the molar mass of the structure shown. *1 amine or outer side, *2 acyl side, *3 side chain or, on linkers, in order; H or OH if unused. Where a SMILES comes first, the peptide text is derived from it. Where no end group is shown, it is not given here. [ ]: non-standard residue; d: D form. X1 = O=C(c1cccc(N=Nc2ccc(CN[*:1])cc2)c1)[*:2]

Series [1] is described as follows: Maximal solubility in buffered solution. It counts as physicochemical. To be noted: phosphate buffer, aqueous buffer; maximal solubility from solid (0.5 mg portions into 1 mL until precipitate); 50 mM aqueous Na2HPO4 pH 7.4; centrifuged 10 000 rpm 1 h 4 °C; supernatant by UV/vis absorbance. How it is done:
UV/vis-absorbance spectroscopy was measured on a JASCO V-660 absorbance spectrometer in a 1 cm quartz glass cuvette. For PTH25–37, the absorbance was measured at 205 nm with a molar extinction coefficient of 49.310 cm^–1 M^–1; trans-azobenzene containing peptides were measured at 327 nm with a molar extinction coefficient of 13.000 cm^–1 M^–1. CD spectroscopy was measured with a JASCO J-1500 CD Spectrometer in either a 1 mm. As buffered solution, a 50 mM aqueous Na2HPO4 buffer solution was used with a pH value adjusted to 7.4. Transmission was measured with a Litesizer DLS 500 from Anton Paar using a 3 mm × 3 mm quartz glass cuvette. The irradiation wavelength was 658 nm. The equilibration time was 1 min, and the measurement time was 10 s. The temperature was maintained at 25 °C.
To determine the maximal solubility of a peptide, small amounts (0.5 mg) of the respective peptide were added to 1 mL of buffered solution and shacked for 10 s until an insoluble precipitate was visible. The suspensions were centrifuged at 10 000 rpm for 1 h at 4 °C, and the supernatant was transferred to another tube. The remaining monomer concentration was determined using UV/vis-absorbance spectroscopy. To determine the critical concentration ccr, two samples were prepared for each peptide according to the procedure for the ThT monitored fibrillization assay, one with ThT as a reference sample and the other one without ThT. Twenty hours after the reference sample reached the stationary phase, the fibril containing solutions from the sample without ThT were transferred to a tube and centrifuged at 10 000 rpm for 1 h at room temperature. The supernatant was transferred to another tube, and the concentration of the remaining monomers was determined using UV/vis-absorbance spectroscopy at 278 nm with a molar extinction coefficient of 3750 cm^–1 M^–1 for the azobenzene containing peptides and at 205 nm with a molar extinction coefficient of 49 310 cm^–1 M^–1 for PTH25–37.

The test system of a further series is NHDF cells. Briefly: Resazurin reduction cell viability assay on NHDF fibroblasts. Format: cell-based, human. To be noted: trans-isomers, serial dilutions, 24 h or 96 h incubation, n = 8 per treatment, 3 independent experiments. The protocol: (§1) Cell viability was determined for trans-P4, trans-P8, and trans-P12 on NHDF as well as 3T3 fibroblasts with a resazurin reduction assay. Briefly, cells were seeded at desired cell densities in corresponding culture media supplemented with 10% FCS and penicillin/streptomycin in 96-well plates on day 0 and incubated overnight under standard cell culture conditions. On day 1, serial dilutions of the peptides in cell culture media were prepared. Then, medium (background and negative control–100% viability), TritonX in medium f.c. 0.025% (postive control–0% viability), and the peptide dilutions were added with one treatment per column (n = 8). Incubation for 24 h or 96 h under standard cell culture conditions followed. On day of measurement, resazurin stock solution was added to a final concentration of 44 μM into each well. After 2 h incubation, the resorufin fluorescence was measured with a Cytation 5 plate reader system. Means and standard deviation of each column were calculated. Experiments were repeated independently 3 times, and average values were evaluated (see Figure S12).
(§2) Figure S12: Cell viability assay of trans-P4, trans-P8, and trans-P12 on NHDF (human, adult, fibroblasts) and 3T3 (murine,
(§3) embryonal, fibroblasts) cells after 24 h (blue) and 96 h (orange). 100% cell viability corresponds to the value of the negative,
(§4) (1 picture or pasted object on this page, not shown here)

In another series the test system is 3T3 cells. Briefly: Resazurin reduction cell viability assay on 3T3 fibroblasts. It counts as cell-based, murine. To be noted: trans-isomers, serial dilutions, 24 h or 96 h incubation, n = 8 per treatment, 3 independent experiments. The protocol: as §1, §2, §3, §4

In the case of “RKKLQDVHNFVAL [PTH25–37, reference compound]”, the thermodynamic solubility at 10 s in series [1] is over 500 µM.
Still for that read-out and setting: the result for `CC(C)C[C@H](NC(=O)[C@H](C)NC(=O)[C@@H](NC(=O)[C@H](Cc1ccccc1)NC(=O)[C@H](CC(N)=O)NC(=O)[C@H](Cc1c[nH]cn1)NC(=O)[C@@H](NC(=O)[C@H](CC(=O)O)NC(=O)c1cccc(N=Nc2ccc(CNC(=O)[C@H](CCC(N)=O)NC(=O)[C@H](CC(C)C)NC(=O)[C@H](CCCCN)NC(=O)[C@H](CCCCN)NC(=O)[C@@H](N)CCCNC(=N)N)cc2)c1)C(C)C)C(C)C)C(=O)O` [P6] (H-RKKLQ[X1]DVHNFVAL-OH) reads 20 µM (≈ 36.1 µg/mL).
Same read-out and setting: then `CC(C)C[C@H](NC(=O)[C@H](C)NC(=O)[C@@H](NC(=O)[C@H](Cc1ccccc1)NC(=O)c1cccc(N=Nc2ccc(CNC(=O)[C@H](CC(N)=O)NC(=O)[C@H](Cc3c[nH]cn3)NC(=O)[C@@H](NC(=O)[C@H](CC(=O)O)NC(=O)[C@H](CCC(N)=O)NC(=O)[C@H](CC(C)C)NC(=O)[C@H](CCCCN)NC(=O)[C@H](CCCCN)NC(=O)[C@@H](N)CCCNC(=N)N)C(C)C)cc2)c1)C(C)C)C(=O)O` [P10] (H-RKKLQDVHN[X1]FVAL-OH), with 7 µM (≈ 12.6 µg/mL); and `CC(C)C[C@H](NC(=O)[C@H](C)NC(=O)[C@@H](NC(=O)[C@H](Cc1ccccc1)NC(=O)[C@H](CC(N)=O)NC(=O)[C@H](Cc1c[nH]cn1)NC(=O)[C@@H](NC(=O)[C@H](CC(=O)O)NC(=O)[C@H](CCC(N)=O)NC(=O)[C@H](CC(C)C)NC(=O)[C@H](CCCCN)NC(=O)c1cccc(N=Nc2ccc(CNC(=O)[C@@H](N)CCCNC(=N)N)cc2)c1)C(C)C)C(C)C)C(=O)O` [P9] (H-R[X1]KLQDVHNFVAL-OH), with 130 µM (≈ 218 µg/mL); and `CC(C)C[C@H](NC(=O)[C@H](C)NC(=O)c1cccc(N=Nc2ccc(CNC(=O)[C@@H](NC(=O)[C@H](Cc3ccccc3)NC(=O)[C@H](CC(N)=O)NC(=O)[C@H](Cc3c[nH]cn3)NC(=O)[C@@H](NC(=O)[C@H](CC(=O)O)NC(=O)[C@H](CCC(N)=O)NC(=O)[C@H](CC(C)C)NC(=O)[C@H](CCCCN)NC(=O)[C@H](CCCCN)NC(=O)[C@@H](N)CCCNC(=N)N)C(C)C)C(C)C)cc2)c1)C(=O)O` [P11] (H-RKKLQDVHNFV[X1]AL-OH), with 20 µM (≈ 36.1 µg/mL).
On the same count and under the same terms, the result for `CC(C)C[C@H](NC(=O)[C@H](C)NC(=O)[C@@H](NC(=O)[C@H](Cc1ccccc1)NC(=O)[C@H](CC(N)=O)NC(=O)[C@H](Cc1c[nH]cn1)NC(=O)[C@@H](NC(=O)[C@H](CC(=O)O)NC(=O)[C@H](CCC(N)=O)NC(=O)c1cccc(N=Nc2ccc(CNC(=O)[C@H](CC(C)C)NC(=O)[C@H](CCCCN)NC(=O)[C@H](CCCCN)NC(=O)[C@@H](N)CCCNC(=N)N)cc2)c1)C(C)C)C(C)C)C(=O)O` [P7] (H-RKKL[X1]QDVHNFVAL-OH) reads 140 µM (≈ 253 µg/mL).
Turning to `CC(C)C[C@H](NC(=O)[C@H](C)NC(=O)[C@@H](NC(=O)[C@H](Cc1ccccc1)NC(=O)[C@H](CC(N)=O)NC(=O)[C@H](Cc1c[nH]cn1)NC(=O)c1cccc(N=Nc2ccc(CNC(=O)[C@H](CC(=O)O)NC(=O)[C@H](CCC(N)=O)NC(=O)[C@H](CC(C)C)NC(=O)[C@H](CCCCN)NC(=O)[C@H](CCCCN)NC(=O)[C@@H](N)CCCNC(=N)N)cc2)c1)C(C)C)C(=O)O` [P4] (H-RKKLQD[X1]HNFVAL-OH), the “toxicity toward NHDF cells” value with NHDF cells is “did not observe any toxicity”. The same molecule registered a thermodynamic solubility at 10 s in series [1] of 370 µM (≈ 631 µg/mL). The “toxicity toward 3T3 cells” value in the series on 3T3 cells is “did not observe any toxicity”.
On to `CC(C)C[C@H](NC(=O)[C@H](C)NC(=O)[C@@H](NC(=O)[C@H](Cc1ccccc1)NC(=O)[C@H](CC(N)=O)NC(=O)[C@H](Cc1c[nH]cn1)NC(=O)c1cccc(N=Nc2ccc(CNC(=O)[C@H](CCC(N)=O)NC(=O)[C@H](CC(C)C)NC(=O)[C@H](CCCCN)NC(=O)[C@H](CCCCN)NC(=O)[C@@H](N)CCCNC(=N)N)cc2)c1)C(C)C)C(=O)O` [P5] (H-RKKLQ[X1]HNFVAL-OH), for which the thermodynamic solubility at 10 s in series [1] came out at 25 µM (≈ 39.8 µg/mL). This counts as double-digit micromolar.
Consider `CC(C)C[C@H](NC(=O)[C@H](C)NC(=O)c1cccc(N=Nc2ccc(CNC(=O)[C@H](Cc3ccccc3)NC(=O)[C@H](CC(N)=O)NC(=O)[C@H](Cc3c[nH]cn3)NC(=O)[C@@H](NC(=O)[C@H](CC(=O)O)NC(=O)[C@H](CCC(N)=O)NC(=O)[C@H](CC(C)C)NC(=O)[C@H](CCCCN)NC(=O)[C@H](CCCCN)NC(=O)[C@@H](N)CCCNC(=N)N)C(C)C)cc2)c1)C(=O)O` [P12] (H-RKKLQDVHNF[X1]AL-OH), for which the “toxicity toward NHDF cells” value with NHDF cells is recorded as “did not observe any toxicity”. This molecule gave a solubility (thermodynamic) at 10 s in series [1] of 135 µM (≈ 230 µg/mL). For the same molecule, the “toxicity toward 3T3 cells” value in the series on 3T3 cells was “did not observe any toxicity”.
Turning to `CC(C)C[C@H](NC(=O)[C@H](C)NC(=O)[C@@H](NC(=O)[C@H](Cc1ccccc1)NC(=O)[C@H](CC(N)=O)NC(=O)[C@H](Cc1c[nH]cn1)NC(=O)[C@@H](NC(=O)c1cccc(N=Nc2ccc(CNC(=O)[C@H](CC(=O)O)NC(=O)[C@H](CCC(N)=O)NC(=O)[C@H](CC(C)C)NC(=O)[C@H](CCCCN)NC(=O)[C@H](CCCCN)NC(=O)[C@@H](N)CCCNC(=N)N)cc2)c1)C(C)C)C(C)C)C(=O)O` [P1] (H-RKKLQD[X1]VHNFVAL-OH), the thermodynamic solubility at 10 s in series [1] is 90 µM (≈ 162 µg/mL). This lies in the double-digit micromolar range.
On the same count and under the same terms, the result for `CC(C)C[C@H](NC(=O)[C@H](C)NC(=O)[C@@H](NC(=O)[C@H](Cc1ccccc1)NC(=O)[C@H](CC(N)=O)NC(=O)[C@H](Cc1c[nH]cn1)NC(=O)c1cccc(N=Nc2ccc(CNC(=O)[C@@H](NC(=O)[C@H](CC(=O)O)NC(=O)[C@H](CCC(N)=O)NC(=O)[C@H](CC(C)C)NC(=O)[C@H](CCCCN)NC(=O)[C@H](CCCCN)NC(=O)[C@@H](N)CCCNC(=N)N)C(C)C)cc2)c1)C(C)C)C(=O)O` [P2] (H-RKKLQDV[X1]HNFVAL-OH) reads 60 µM (≈ 108 µg/mL).
Turning to `CC(C)C[C@H](NC(=O)[C@H](C)NC(=O)[C@@H](NC(=O)[C@H](Cc1ccccc1)NC(=O)[C@H](CC(N)=O)NC(=O)[C@H](Cc1c[nH]cn1)NC(=O)[C@@H](NC(=O)[C@H](CC(=O)O)NC(=O)[C@H](CCC(N)=O)NC(=O)[C@H](CC(C)C)NC(=O)[C@H](CCCCN)NC(=O)c1cccc(N=Nc2ccc(CNC(=O)[C@H](CCCCN)NC(=O)[C@@H](N)CCCNC(=N)N)cc2)c1)C(C)C)C(C)C)C(=O)O` [P8] (H-RK[X1]KLQDVHNFVAL-OH), the “toxicity toward NHDF cells” value in the series on NHDF cells is given as “did not observe any toxicity”. The solubility (thermodynamic) at 10 s in series [1] was 200 µM (≈ 361 µg/mL). The “toxicity toward 3T3 cells” value with 3T3 cells is “did not observe any toxicity”.
With `CC(C)C[C@H](NC(=O)[C@H](C)NC(=O)[C@@H](NC(=O)[C@H](Cc1ccccc1)NC(=O)[C@H](CC(N)=O)NC(=O)[C@H](Cc1c[nH]cn1)NC(=O)[C@@H](NC(=O)c1cccc(N=Nc2ccc(CNC(=O)[C@H](CCC(N)=O)NC(=O)[C@H](CC(C)C)NC(=O)[C@H](CCCCN)NC(=O)[C@H](CCCCN)NC(=O)[C@@H](N)CCCNC(=N)N)cc2)c1)C(C)C)C(C)C)C(=O)O` [P3] (H-RKKLQ[X1]VHNFVAL-OH), the solubility (thermodynamic) at 10 s in series [1] amounted to 35 µM (≈ 59.2 µg/mL).
